Reference: PubChem BioAssay AID248 (DTP/NCI, 2004)
“And” between values parts separate entries of the source, which are not always exact repeats. Identical values can stand only once. Inconclusive results and toxic doses are left out. Square brackets hold non-standard residues; d marks the D form. Peptide text beside a SMILES is read from it. * marks the point of attachment. ξ: configuration not given here. ξY = NC(Cc1ccc(O)cc1)C(=O)O; Cbz = O=C(OCc1ccccc1)*

Test system: L1210 leukemia ip in BDF1 mice, survival T/C
Assay: NCI In Vivo Anticancer Drug Screen. Data for tumor model L1210 Leukemia (intraperitoneal) in B6D2F1 (BDF1) mice
Details: endpoint: mean survival time, higher = longer survival
Procedure, shortened: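 Tumor cells were implanted, animals were treated, and survival was followed. The result divides the treated measurement by the vehicle-control measurement.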

[1] = dose: 50.0 mg/kg/injection, schedule: Q01DX001 (ip), vehicle: Klucel (hydroxypropylcellulose) (HPC)
[2] = dose: 200.0 mg/kg/injection, schedule: Q01DX001 (ip), vehicle: Klucel (hydroxypropylcellulose) (HPC)
[3] = dose: 100.0 mg/kg/injection, schedule: Q01DX009 (ip), vehicle: saline
[4] = dose: 100.0 mg/kg/injection, schedule: Q04DX002 (ip), vehicle: saline
[5] = dose: 200.0 mg/kg/injection, schedule: Q01DX009 (ip), vehicle: saline
[6] = dose: 400.0 mg/kg/injection, schedule: Q01DX009 (ip), vehicle: saline
[7] = dose: 100.0 mg/kg/injection, schedule: Q01DX009 (ip), vehicle: Klucel (hydroxypropylcellulose) (HPC)
[8] = dose: 100.0 mg/kg/injection, schedule: Q04DX003 (ip), vehicle: Klucel (hydroxypropylcellulose) (HPC)
[9] = dose: 200.0 mg/kg/injection, schedule: Q01DX009 (ip), vehicle: Klucel (hydroxypropylcellulose) (HPC)
[10] = dose: 200.0 mg/kg/injection, schedule: Q04DX003 (ip), vehicle: Klucel (hydroxypropylcellulose) (HPC)
[11] = dose: 400.0 mg/kg/injection, schedule: Q01DX009 (ip), vehicle: Klucel (hydroxypropylcellulose) (HPC)
[12] = dose: 400.0 mg/kg/injection, schedule: Q04DX003 (ip), vehicle: Klucel (hydroxypropylcellulose) (HPC)
[13] = dose: 100.0 mg/kg/injection, schedule: Q01DX001 (ip), vehicle: saline
[14] = dose: 200.0 mg/kg/injection, schedule: Q01DX001 (ip), vehicle: saline
[15] = dose: 400.0 mg/kg/injection, schedule: Q01DX001 (ip), vehicle: saline
[16] = dose: 100.0 mg/kg/injection, schedule: Q04DX003 (ip), vehicle: saline with Tween-80
[17] = dose: 200.0 mg/kg/injection, schedule: Q04DX003 (ip), vehicle: saline with Tween-80
[18] = dose: 400.0 mg/kg/injection, schedule: Q04DX003 (ip), vehicle: saline with Tween-80
[19] = dose: 25.0 mg/kg/injection, schedule: Q01DX009 (ip), vehicle: saline
[20] = dose: 50.0 mg/kg/injection, schedule: Q01DX009 (ip), vehicle: saline
[21] = dose: 200.0 mg/kg/injection, schedule: Q01DX009 (ip), vehicle: saline with Tween-80
[22] = dose: 400.0 mg/kg/injection, schedule: Q01DX009 (ip), vehicle: saline with Tween-80

SMILES: Cc1nc(N)nc2c1CCC(O)S2 (centres undefined)
- T/C [1]: 89 % of control
- T/C [2]: 86 % of control

SMILES: C1COC(COCC2CO2)C1 (centres undefined)
- T/C [3]: 100 % of control
- T/C [4]: 98 % of control and 100 % of control and 120 % of control
- T/C (dose: 100.0 mg/kg/injection, schedule: Q04DX003 (ip), vehicle: saline): 99 % of control
- T/C [5]: 92 % of control
- T/C (dose: 200.0 mg/kg/injection, schedule: Q04DX002 (ip), vehicle: saline): 103 % of control and 109 % of control and 111 % of control
- T/C (dose: 200.0 mg/kg/injection, schedule: Q04DX003 (ip), vehicle: saline): 98 % of control
- T/C [6]: 93 % of control
- T/C (dose: 400.0 mg/kg/injection, schedule: Q04DX002 (ip), vehicle: saline): 98 % of control and 102 % of control (2×)
- T/C (dose: 400.0 mg/kg/injection, schedule: Q04DX003 (ip), vehicle: saline): 105 % of control

SMILES: COc1cccc(CCNC(=O)CCN2C(=O)c3ccccc3C2=O)c1
- T/C (dose: 50.0 mg/kg/injection, schedule: Q01DX001 (ip), vehicle: carboxymethylcellulose (CMC)): 94 % of control
- T/C (dose: 100.0 mg/kg/injection, schedule: Q01DX001 (ip), vehicle: carboxymethylcellulose (CMC)): 96 % of control
- T/C (dose: 200.0 mg/kg/injection, schedule: Q01DX001 (ip), vehicle: carboxymethylcellulose (CMC)): 100 % of control
- T/C (dose: 400.0 mg/kg/injection, schedule: Q01DX001 (ip), vehicle: carboxymethylcellulose (CMC)): 100 % of control

SMILES: O=[N+]([O-])c1ccc2cn[nH]c2c1
- T/C [7]: 112 % of control
- T/C [8]: 95 % of control
- T/C [9]: 106 % of control
- T/C [10]: 92 % of control
- T/C [11]: 107 % of control
- T/C [12]: 96 % of control

SMILES: Clc1ccccc1N1CCN(c2c3c(nc4ccccc24)CCCCC3)CC1
- T/C [13]: 97 % of control
- T/C [14]: 103 % of control
- T/C [15]: 97 % of control

SMILES: CCOC(=O)C(Cc1ccc(O)cc1)NC(=O)CNC(=O)OCc1ccccc1 (stereo not drawn) (Cbz-Gly-[ξY]-OEt)
- T/C [16]: 106 % of control
- T/C [17]: 95 % of control
- T/C [18]: 96 % of control

SMILES: CC12CC3CC(C)(C1)CC(OCCN)(C3)C2
- T/C [19]: 94 % of control
- T/C (dose: 25.0 mg/kg/injection, schedule: Q04DX002 (ip), vehicle: saline): 98 % of control
- T/C [20]: 108 % of control
- T/C (dose: 50.0 mg/kg/injection, schedule: Q04DX002 (ip), vehicle: saline): 98 % of control
- T/C [3]: 92 % of control
- T/C [4]: 110 % of control and 117 % of control

SMILES: CC(=O)C1(C)Nc2cccc3cccc(c23)N1
- T/C (dose: 100.0 mg/kg/injection, schedule: Q01DX009 (ip), vehicle: saline with Tween-80): 97 % of control
- T/C [21]: 106 % of control
- T/C [22]: 96 % of control

SMILES: CCc1ccccc1NC(=O)Nc1cc(C)on1
- T/C [7]: 103 % of control
- T/C [9]: 110 % of control
- T/C [11]: 107 % of control

SMILES: COc1ccc(/C=C(/C)[N+](=O)[O-])cc1
- T/C [1]: 104 % of control
- T/C (dose: 100.0 mg/kg/injection, schedule: Q01DX001 (ip), vehicle: Klucel (hydroxypropylcellulose) (HPC)): 97 % of control
- T/C [2]: 95 % of control and 90 % of control
- T/C (dose: 300.0 mg/kg/injection, schedule: Q01DX001 (ip), vehicle: Klucel (hydroxypropylcellulose) (HPC)): 100 % of control

SMILES: CS(=O)(=O)OCCN(CCOS(C)(=O)=O)c1ccc(C=Nc2ccc(-c3csc(Cc4ccccc4)n3)cc2)cc1
- T/C (dose: 20.0 mg/kg/injection, schedule: Q04DX003 (ip), vehicle: Klucel (hydroxypropylcellulose) (HPC)): 122 % of control
- T/C (dose: 30.0 mg/kg/injection, schedule: Q04DX003 (ip), vehicle: Klucel (hydroxypropylcellulose) (HPC)): 98 % of control
- T/C (dose: 66.0 mg/kg/injection, schedule: Q04DX003 (ip), vehicle: Klucel (hydroxypropylcellulose) (HPC)): 152 % of control
- T/C (dose: 150.0 mg/kg/injection, schedule: Q04DX003 (ip), vehicle: Klucel (hydroxypropylcellulose) (HPC)): 107 % of control

SMILES: COc1ccc(/C=C2\CCC3C4(CCCC3(C)C2=O)OCCO4)cc1 (centres undefined)
- T/C [5]: 92 % of control
- T/C [6]: 101 % of control

SMILES: Cc1ccc(C2(O)CCN(CCCC(=O)c3ccc(F)cc3)CC2)cc1
- T/C (dose: 3.12 mg/kg/injection, schedule: Q01DX009 (ip), vehicle: Klucel (hydroxypropylcellulose) (HPC)): 101 % of control
- T/C (dose: 6.25 mg/kg/injection, schedule: Q01DX009 (ip), vehicle: Klucel (hydroxypropylcellulose) (HPC)): 104 % of control
- T/C (dose: 12.5 mg/kg/injection, schedule: Q01DX009 (ip), vehicle: Klucel (hydroxypropylcellulose) (HPC)): 101 % of control
- T/C (dose: 25.0 mg/kg/injection, schedule: Q01DX009 (ip), vehicle: Klucel (hydroxypropylcellulose) (HPC)): 113 % of control
- T/C (dose: 50.0 mg/kg/injection, schedule: Q01DX009 (ip), vehicle: Klucel (hydroxypropylcellulose) (HPC)): 104 % of control

SMILES: C/C=C(\Br)C(=O)O
- T/C (dose: 100.0 mg/kg/injection, schedule: Q04DX002 (ip), vehicle: other): 104 % of control
- T/C [16]: 92 % of control
- T/C (dose: 200.0 mg/kg/injection, schedule: Q04DX002 (ip), vehicle: other): 104 % of control

SMILES: O=C(O)CCC(=O)Nc1ccccc1C(F)(F)F
- T/C [16]: 104 % of control
- T/C [21]: 93 % of control
- T/C [17]: 98 % of control
- T/C [22]: 86 % of control
- T/C [18]: 90 % of control

SMILES: CCN(CC)CCSC(=O)C(O)(c1ccccc1)c1ccccc1
- T/C (dose: 75.0 mg/kg/injection, schedule: Q01DX001 (ip), vehicle: saline): 100 % of control

SMILES: Cc1ccccc1C1(O)c2ccccc2-c2ccccc21
- T/C [16]: 98 % of control
- T/C [17]: 96 % of control
- T/C [18]: 96 % of control

SMILES: CCN(CC)CCOC(=O)Nc1cccc(Cl)c1
- T/C [19]: 100 % of control
- T/C [20]: 98 % of control
- T/C [3]: 100 % of control and 109 % of control

SMILES: COc1cc(/C=C(\C(=O)O)c2cccc3ccccc23)cc(OC)c1OC
- T/C [8]: 97 % of control
- T/C [10]: 107 % of control
- T/C [12]: 102 % of control

SMILES: Cc1c2ccccc2c(C)c2c1c(F)cc1ccccc12
- T/C (dose: 37.5 mg/kg/injection, schedule: Q01DX001 (ip), vehicle: Klucel (hydroxypropylcellulose) (HPC)): 120 % of control

SMILES: Cc1ccc2[nH]c(=S)n(-c3ccc(Cl)cc3)c(=O)c2c1
- T/C (dose: 100.0 mg/kg/injection, schedule: Q04DX003 (ip), vehicle: carboxymethylcellulose (CMC)): 97 % of control
- T/C (dose: 200.0 mg/kg/injection, schedule: Q04DX003 (ip), vehicle: carboxymethylcellulose (CMC)): 88 % of control
- T/C (dose: 400.0 mg/kg/injection, schedule: Q04DX003 (ip), vehicle: carboxymethylcellulose (CMC)): 93 % of control

SMILES: CCCCCCCCC/C(C)=N\NC(=O)c1ccccc1
- T/C [8]: 105 % of control
- T/C [10]: 92 % of control
- T/C [12]: 97 % of control

SMILES: CC(=O)c1c(C)c(C)cc(C)c1C
- T/C [7]: 110 % of control
- T/C [8]: 96 % of control
- T/C [9]: 97 % of control
- T/C [10]: 103 % of control
- T/C [11]: 111 % of control
- T/C [12]: 103 % of control

SMILES: O=C(Nc1ncc([N+](=O)[O-])s1)C(F)(F)F
- T/C (dose: 50.0 mg/kg/injection, schedule: Q01DX001 (ip), vehicle: saline): 97 % of control
- T/C [13]: 92 % of control
- T/C [14]: 90 % of control
- T/C [15]: 105 % of control

SMILES: O=C(Nc1ccccc1C(F)(F)F)N(Cc1ccccc1)c1ccccc1
- T/C [7]: 93 % of control
- T/C [9]: 92 % of control
- T/C [11]: 98 % of control

SMILES: CC(=O)C(Cl)C(C)=O.CC(=O)CC(C)=O.CC(=O)CC(C)=O.[Rh]
- T/C (dose: 50.0 mg/kg/injection, schedule: Q01DX001 (ip), vehicle: other): 108 % of control
- T/C (dose: 100.0 mg/kg/injection, schedule: Q01DX001 (ip), vehicle: other): 102 % of control
- T/C (dose: 200.0 mg/kg/injection, schedule: Q01DX001 (ip), vehicle: other): 98 % of control
- T/C (dose: 400.0 mg/kg/injection, schedule: Q01DX001 (ip), vehicle: other): 98 % of control

SMILES: Cc1cccc(NC(=O)NC2CCC(CC3CCCCC3)CC2)c1 (centres undefined)
- T/C [7]: 106 % of control
- T/C [8]: 97 % of control
- T/C [9]: 97 % of control
- T/C [10]: 101 % of control
- T/C [11]: 95 % of control
- T/C [12]: 101 % of control

SMILES: O=C(Nc1ccc(C2=NCCN2)cc1)c1ccc([N+](=O)[O-])c(C(=O)Nc2ccc(C3=NCCN3)cc2)c1
- T/C (dose: 10.0 mg/kg/injection, schedule: Q01DX Z (ip), vehicle: carboxymethylcellulose (CMC)): 108 % of control
- T/C (dose: 19.0 mg/kg/injection, schedule: Q01DX Z (ip), vehicle: carboxymethylcellulose (CMC)): 108 % of control
